For one test, the system named is A. baumannii 5973. Kind of test: Broth microdilution MIC. Format: cell-based, Acinetobacter baumannii. Conditions: A. baumannii 5973, Clinical isolate. How it is done: (§1) Antibacterial activity of compounds MDN-0057, MDN-0058, MDN-0059 and MDN-0060 was evaluated using the broth microdilution methodology. This method is used to determine minimum inhibitory concentrations (MICs) which are defined as the lowest concentration of an antimicrobial compound that will inhibit the visible growth of a microorganism after overnight incubation.
(§2) In the microbroth dilution assay, microorganisms were selected by streaking bacteria culture from a cryovial into Mueller Hinton II (MHII) agar plate(s) and incubate overnight at 37° C. Thereafter, 3 to 5 characteristic fresh colonies were selected and suspended in 25 mL of MHII broth media for 2 hours shaking at 220 rpm. The 2 hour broth cultures were adjusted to an optical density of 0.111 at 660 nm and then diluted to 1:100 in order to obtain assay inoculums.
(§3) The four compounds evaluated were serially diluted in 100% DMSO with a dilution factor of 2 to provide 10 compound concentrations starting at 8 mg/mL.
(§4) For the assays, 90 μL/well of the appropriated diluted inoculum were mixed with 1.6 μL/well of each compound concentration and 8.4 μL/well of MHII broth media, resulting in an additional dilution of these compounds to yield concentrations in the assay wells from 128 μg/mL to 0.25 μg/mL. After that, the assay plates were read in a Tecan Ultraevolution spectrophotometer at 612 nm for T0 (zero time). Then, the plates were statically incubated at 37° C. for 20 hours. After incubation, they were shaken in a DPC Micromix-5 and read again for Tf (final time). Percentage of growth inhibition was calculated using the following normalization:
(§5) % Inhibition=[1-[(TfSample-T0Sample)−(TfBlank-T0blank)/(TfGrowth-T0Growth)−(TfBlank-T0blank)]×100. • Where, • T0 Sample=the absorbance of the strain growth in the presence of sample measured at zero time (before incubation). • Tf Sample=the absorbance of the strain growth in the presence of sample measured at final time (after incubation) • T0 Growth=the absorbance of the strain growth in the absence of sample measured at zero time (before incubation). • Tf Growth=the absorbance of the strain growth in the absence of sample measured at final time (after incubation). • T0 Blank=the absorbance of the broth medium (blank) measured at zero time (before incubation). • Tf Blank=the absorbance of the broth medium (blank) measured at final time (after incubation).
For orientation: In broth dilution the organism is exposed to a series of concentrations in liquid medium.

The next test has as its system P. aeruginosa ATCC 27853. The experiment in a line: Broth microdilution MIC. Format: cell-based, Pseudomonas aeruginosa. Conditions: P. aeruginosa ATCC 27853, wild type. Here is the method:
as §1, §2, §3, §4, §5

The next test has as its system A. baumannii 2445. Kind of test: Broth microdilution MIC. The format is cell-based, Acinetobacter baumannii. Conditions: A. baumannii 2445, ΔadeABC. Here is the method: as §1, §2, §3, §4, §5
In a further test the test system is A. baumannii 2443. Kind of test: Broth microdilution MIC. Format: cell-based, Acinetobacter baumannii. Conditions: A. baumannii 2443, Clinical isolate. Here is the method:
as §1, §2, §3, §4, §5

The next test deals with A. baumannii ATCC 19606. Kind of test: Broth microdilution MIC. Format: cell-based, Acinetobacter baumannii. Conditions: A. baumannii ATCC 19606, Clinical isolate. Here is the method: as §1, §2, §3, §4, §5
In a further test the test system is A. baumannii 2444. The experiment in a line: Broth microdilution MIC. Conditions: A. baumannii 2444, ΔadellJK. The format is cell-based, Acinetobacter baumannii. Here is the method: as §1, §2, §3, §4, §5
Test [1] relates to A. baumannii ATCC BAA-747. The experiment in a line: Broth microdilution MIC. Format: cell-based, Acinetobacter baumannii. To be noted: A. baumannii ATCC BAA-747, Clinical isolate. How it is done:
as §1, §2, §3, §4, §5

Another test deals with A. baumannii 2446. Kind of test: Broth microdilution MIC. The format is cell-based, Acinetobacter baumannii. Conditions: A. baumannii 2446, ΔadeABC, ΔadellJK. How it is done:
as §1, §2, §3, §4, §5

The next test concerns K. pneumoniae 21. Kind of test: Broth microdilution MIC. Format: cell-based, Klebsiella pneumoniae. To be noted: K. pneumoniae 21, permeable strain. Here is the method:
as §1, §2, §3, §4, §5

The test system of another test is K. pneumoniae 847. Kind of test: Broth microdilution MIC. The format is cell-based, Klebsiella pneumoniae. To be noted: K. pneumoniae 847, Clinical isolate. Here is the method:
as §1, §2, §3, §4, §5

The test system of a further test is S. aureus ATCC 29213. Kind of test: Broth microdilution MIC. Format: cell-based, Staphylococcus aureus. How it is done: as §1, §2, §3, §4, §5
For test [2], the system named is Escherichia coli acrAB::Tn903 (CB-219). Kind of test: Micro RI (resistance) bioassay on E. coli CB-219. Format: cell-based. How it is done:
The frequency of resistance to MDN-0057 and MDN-0058 was assessed on Escherichia coli acrAB::Tn903 (CB-219) and wild type (WT) Acinetobacter baumannii (ATCC BAA-747). For this purpose, the Minimum Inhibitory Concentration of MDN-0057 versus each strain was determined by broth microdilution as described in Clinical Laboratory Standards Institute publication M07-A9, Vol. 32, No. 2., “Methods for Dilution Antimicrobial Susceptibility Tests for Bacteria that Grow Aerobically; Approved Standard—Ninth Edition,” January 2012. Six-well plates containing Mueller Hinton II agar (5 mL per well) were prepared with MDN-0057 or MDN-0058 at concentrations 4-fold and 8-fold above the MIC. Cultures were grown to late log phase and spread on the agar. Plates were incubated at 37° C. and examined after one and two days of incubation.
Six to eight isolates from each species were obtained by re-streaking growth from the plates on antibiotic-free tryptic soy agar plates, and MICs of MDN-0057 versus the isolates were subsequently determined. MICs of the E. coli isolates were elevated at least 16-64-fold relative to their parent strain, CB-219.

The test system of the next test is P. aeruginosa 839. The experiment in a line: Broth microdilution MIC. To be noted: P. aeruginosa 839, ΔMexAB-OprM. Format: cell-based, Pseudomonas aeruginosa. How it is done: as §1, §2, §3, §4, §5
The test system of a further test is E. coli 219. Kind of test: Broth microdilution MIC. The format is cell-based, Escherichia coli. Conditions: E. coli 219, ΔAcrAB::Tn903kan. How it is done: as §1, §2, §3, §4, §5
A further test concerns E. coli ATCC 25922. The experiment in a line: Broth microdilution MIC. To be noted: E. coli ATCC 25922, wild type. The format is cell-based, Escherichia coli. Here is the method: as §1, §2, §3, §4, §5

Converted amounts (≈) assume the structure as drawn.

Regarding `[C-]#[N+]C(=C)C(Cc1ccc(OC)cc1)([N+]#[C-])C1CC(O)C=CC1OC(C)=O` (stereo not shown) [MDN-0060], the MIC in the test on A. baumannii 5973 is 1 to 2 µg/mL; against P. aeruginosa ATCC 27853, 32 to 64 µg/mL.

As to `[C-]#[N+]C(=C)C(Cc1ccc(OC)cc1)([N+]#[C-])C1CC(O)CCC1OC(C)=O` (stereo not shown) [MDN-0059], the MIC was 0.5 to 1 µg/mL against A. baumannii 5973 and 16 µg/mL (≈ 43.4 µM) with P. aeruginosa ATCC 27853.

In the case of `[C-]#[N+]C(=C)C(Cc1ccc(OC)cc1)([N+]#[C-])C1CC(O)C=CC1OC(=O)CO` (stereo not shown) [MDN-0058], the minimum inhibitory concentration (MIC) was 2 to 8 µg/mL in the test on A. baumannii 2445; 2 µg/mL (≈ 5.23 µM) with A. baumannii 2443; 2 to 8 µg/mL in the test with A. baumannii ATCC 19606; 0.25 µg/mL (≈ 0.654 µM) against A. baumannii 5973; 0.25 to 1 µg/mL in the test on A. baumannii 2444; 1 to 16 µg/mL in test [1]. In addition, the MIC against A. baumannii 2446 was less than 0.06 µg/mL; in the test on K. pneumoniae 21 it was 0.5 µg/mL (≈ 1.31 µM); against K. pneumoniae 847, 64 µg/mL (≈ 167 µM); with S. aureus ATCC 29213 (S. aureus ATCC 29213, wild type), greater than 128 µg/mL; in [2] (E. coli_219, Micro RI, Isolate #1_4X), 0.25 µg/mL (≈ 0.654 µM); in [2] (E. coli_219, Micro RI, Isolate #2_8X), 0.25 µg/mL (≈ 0.654 µM). Besides, the MIC in test [2] (E. coli_219, Micro RI, Isolate #3_4X) was 0.25 µg/mL (≈ 0.654 µM); in [2] (E. coli_219, Micro RI, Isolate #4_4X), 0.25 µg/mL (≈ 0.654 µM); in test [2] (E. coli_219, Micro RI, Isolate #5_8X), 0.25 µg/mL (≈ 0.654 µM); in test [2] (E. coli_219, Parent), 0.25 to 0.5 µg/mL; against P. aeruginosa ATCC 27853, 64 µg/mL (≈ 167 µM); in the test on P. aeruginosa 839, 1 to 4 µg/mL. Further, the values for the MIC against E. coli 219 and with E. coli ATCC 25922 were 0.25 to 0.5 µg/mL and 16 µg/mL (≈ 41.8 µM), respectively. Also, in the test on S. aureus ATCC 29213, the “MIC against S. aureus (No activity)” value amounted to 128 µg/mL (≈ 335 µM).

What is called MIC is the smallest concentration in the dilution series that meets the test's criterion for growth inhibition.

These data come from patent US20160185717A1, “COMPOUNDS WITH ANTIBACTERIAL ACTIVITY” (FUNDACIÓN MEDINA. CENTRO DE EXCELENCIA EN INVESTIGACIÓN DE …, priority 2013, published 2016).
